Assay results published in patent US20070219180A1, “Muscle Relaxtion Accelerator and Therapeutic Agent for Muscular Tissue Diseases Such as Muscle Relaxation Failure” (priority 2004, published 2007).
Several values for one entry are separate records, joined by “and”; a condition that tells them apart may be missing. Identical values can stand only once.

Test system: male Wistar rats
Test: Experiment 12: effect on myocardial microcirculation (microsphere myocardial tissue blood flow rate)
Assay type: in vivo, rat
Description: The effects of the compound on myocardial microcirculation were examined. In this experiment, the 1-hydrochloride of the compound, 4-[3-(4-benzylpiperidin-1-yl)propionyl]-7-methoxy-2,3,4,5-tetrahydro-1,4-benzothiazepine 1-hydrochloride (hereinafter called the compound) was used as the 1,4-benzothiazepine derivative or pharmaceutically acceptable salt thereof.
Four 8-week old male Wistar rats weighing 300-310 g were used in the study. The rats were anesthetized with 1,000 mg/kg of urethane and 80 mg/kg of α-chloralose by subperitoneal injection under artificial respiration (Harvard) using endotracheal intubation. In this experiment, 100 mg of the compound was dissolved in 1 ml of dimethylsulfoxide (DMSO) and the resulting DMSO solution of the compound was stored at 4° C. Norepinephrine solution was prepared by dissolving 1 mg of norepinephrine in 41 μl of distilled water, at an infusion speed of 30 μg/kg/min.
Firstly, continuous infusion catheters of calcium chloride solution or norepinephrine solution containing calcium chloride were inserted into the right external jugular veins of the rats, and 2F polyethylene catheters for microspheres were inserted into the left ventricles via the right common arteries. In addition, test drug infusion catheters were inserted into the right femoral veins.
A 1-lead electrocardiogram and the left ventricular pressure were recorded simultaneously on a personal computer via an A/D converter. In the preparation step, blood pressure, pulse, and electrocardiogram of the rats were monitored for 15 minutes and allowed to stabilize, and then 5% dextrose solution containing calcium chloride (at a concentration based on the weight of the rat) was infused into the right external jugular vein for 20 minutes at 16.6 μl/min (12 mg/kg/min of calcium chloride). Next, norepinephrine solution containing calcium chloride without changes in dosage regimen was immediately injected at a rate of 30 μg/kg/min via the right external jugular vein. After the start of administration, calcium chloride and norepinephrine were then continuously injected in the form of a norepinephrine solution containing calcium chloride. With continuous injection of calcium chloride via the right external jugular vein, 5% dextrose solution containing 0.1% DMSO solution was administered via the right femoral vein to Control A rat weighing 310 g (to which the compound was not administered) and to Control B rat weighing 300 g (to which the compound was not administered), 5 minutes before commencement of injection (intravenous injection) of the norepinephrine solution containing calcium chloride. In addition, with continuous injection of calcium chloride via the right external jugular vein, a 5% dextrose solution of the compound was continuously administered to Test 15 rat weighing 300 g and Test 16 rat weighing 300 g for 3 minutes at a rate of 0.33 mg/kg/min and subsequently for 25 minutes at a rate of 0.01 mg/kg/min, 5 minutes before commencement of injection (intravenous injection) of the norepinephrine solution containing calcium chloride via the right external jugular vein. The infusion rate was 0.5 ml/3 minutes for the first 3 minutes and then 0.05 ml/3 minutes.
Myocardial tissue blood flow rate was measured twice using microspheres, 5 minutes before the start of calcium chloride administration and 20 minutes after the start of administration of norepinephrine solution containing calcium chloride. […]

COc1ccc2c(c1)CN(C(=O)CCN1CCC(Cc3ccccc3)CC1)CCS2 [the compound, 4-[3-(4-benzylpiperidine-1-yl)propionyl]-7-methoxy-2,3,4,5-tetrahydro-1,4-benzothiazepine]
Myocardial tissue blood flow rate (5 minutes before the start of CaCl2 administration (baseline), compound later 0.33 mg/kg/min 3 min then 0.01 mg/kg/min 25 min): 4.6 mL/min/g and 4.3 mL/min/g
Myocardial tissue blood flow rate, ratio to 5 minutes before CaCl2 (5 minutes before the start of CaCl2 administration (defined as 100%)): 100%
Decrease in myocardial tissue blood flow under diastolic dysfunction with administration of the compound (20 minutes after the start of norepinephrine containing CaCl2): ≤ 30%
Myocardial tissue blood flow rate, ratio to 5 minutes before CaCl2 (20 minutes after the start of norepinephrine solution containing CaCl2, compound 0.33 mg/kg/min 3 min then 0.01 mg/kg/min 25 min): 70% and 98%
Myocardial tissue blood flow rate (20 minutes after the start of norepinephrine solution containing CaCl2, compound 0.33 mg/kg/min 3 min then 0.01 mg/kg/min 25 min, from 5 min before norepinephrine): 3.2 mL/min/g and 4.2 mL/min/g
